Test results as given in PMC7809260 (Scientific Reports, 2021).
Where a name gives a salt, the structure may show the parent alone. Read-outs that look alike come from different tables or passages of the source.

Columns and labels:
JumpIn-DAT cells [1] = assay: Effect of pretreatment alone on impedance, dox-treated JumpIn-DAT cells (xCELLigence); type: cell-based, human; conditions: 10 µM, 1 h
[2] = target: human dopamine transporter (DAT) (Homo sapiens, UniProt Q01959); assay: TRACT assay, DAT inhibition in JumpIn-DAT cells (+dox); conditions: dox-treated JumpIn-DAT cells, 10 µM inhibitor compared to vehicle-pretreated cells
JumpIn-DAT cells [3] = assay: cells; conditions: Homo sapiens
U2OS-DAT cells [4] = assay: Effect of pretreatment alone on impedance, U2OS-DAT cells (xCELLigence); type: cell-based, human; conditions: 10 µM, 1 h incubation
DAT [5] = conditions: cited from earlier work
DAT [6] = conditions: cited from earlier work; remark: listed apart in the source
U2OS-DAT cells [7] = assay: GPCR antagonist experiment, dopamine-induced cell response in U2OS-DAT cells (xCELLigence); type: cell-based, human; conditions: 1 µM antagonist 1 h, then 10 µM dopamine
Procedure: Impedance was measured overnight every 15 min.

[8] = test system: non-transfected U2OS cells; assay: GPCR antagonist experiment, dopamine-induced response in non-transfected U2OS cells (xCELLigence); type: cell-based, human; conditions: 1 µM antagonist 1 h, then 316 nM dopamine
Procedure: Figure S1. Representative vehicle-corrected xCELLigence traces of GPCR antagonists in three cell lines. (a) Pretreatment of U2OS-DAT cells with 1 µM antagonist for 1 h. (b) […]
vehicle, 1 µM SCH23390 or raclopride for 1 h. ( c) Pretreatment of JumpIn-DAT cells in the (1 picture or pasted object on this page, not shown here)

JumpIn-DAT cells [9] = assay: GPCR antagonist experiment, dopamine response in dox-treated JumpIn-DAT cells (xCELLigence); type: cell-based, human; conditions: 1 µM antagonist 1 h, then 31.6 µM dopamine
DAT [10] = target: T1, DAT (Homo sapiens, UniProt Q01959); assay: [3H]WIN35,428 saturation binding assay
T1 construct: host or cells: U2OS, transient PEI transfection of pcDNA3.1(+)-DAT; whole cells or membranes
T1 sequence (Q01959 whole entry): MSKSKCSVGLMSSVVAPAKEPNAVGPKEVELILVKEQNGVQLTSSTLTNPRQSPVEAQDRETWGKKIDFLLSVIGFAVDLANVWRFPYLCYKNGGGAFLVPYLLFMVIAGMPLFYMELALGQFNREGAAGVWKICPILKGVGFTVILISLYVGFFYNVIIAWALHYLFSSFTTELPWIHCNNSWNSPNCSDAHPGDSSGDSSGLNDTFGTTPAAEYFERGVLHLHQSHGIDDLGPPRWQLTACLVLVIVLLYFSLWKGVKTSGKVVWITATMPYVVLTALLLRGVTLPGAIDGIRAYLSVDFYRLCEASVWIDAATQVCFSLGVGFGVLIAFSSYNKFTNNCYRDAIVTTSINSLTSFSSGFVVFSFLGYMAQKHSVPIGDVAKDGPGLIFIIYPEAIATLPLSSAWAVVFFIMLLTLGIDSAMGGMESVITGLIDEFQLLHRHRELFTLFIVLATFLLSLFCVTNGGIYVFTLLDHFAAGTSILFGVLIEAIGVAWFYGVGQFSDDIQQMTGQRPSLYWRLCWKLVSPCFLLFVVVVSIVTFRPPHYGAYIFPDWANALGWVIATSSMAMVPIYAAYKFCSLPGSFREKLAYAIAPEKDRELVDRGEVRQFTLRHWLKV

Sequence of human dopamine transporter (DAT) (Q01959 whole entry): as above

COC(=O)[C@H]1[C@@H](OC(=O)c2ccccc2)C[C@@H]2CC[C@H]1N2C.Cl [Cocaine, Cocaine hydrochloride]
effect of pretreatment on its own on impedance (JumpIn-DAT cells [1]): did not substantially affect impedance over time
enhancement of the apparent potency of dopamine by DAT inhibitor [2]: threefold

NCCc1ccc(O)c(O)c1 [Dopamine, dopamine hydrochloride]
EC50 (JumpIn-DAT cells [3]; 0.5 h, read-out: pEC50 ± SEM (apparent potency of dopamine), JumpIn-DAT –dox (converted), fixed pseudo-Hill slope of 1, net AUC first 30 min): 7.94 µM
EC50 (JumpIn-DAT cells [3]; read-out: EC50 in µM, JumpIn-DAT +dox pretreated 1 h with 10 µM GBR12909, fixed pseudo-Hill slope of 1): 26 µM
EC50 (JumpIn-DAT cells [3]; read-out: EC50 in µM, JumpIn-DAT +dox pretreated 1 h with 10 µM cocaine, fixed pseudo-Hill slope of 1): 13 µM
EC50 (JumpIn-DAT cells [3]; read-out: EC50 in µM, JumpIn-DAT –dox, fixed pseudo-Hill slope of 1): 8 µM
EC50 (JumpIn-DAT cells [3]; read-out: pEC50 ± SEM (apparent potency of dopamine), JumpIn-DAT +dox (1 µg/ml), vehicle-pretreated (converted), fixed pseudo-Hill slope of 1): 50.1 µM
EC50 (JumpIn-DAT cells [3]; read-out: pEC50 ± SEM (apparent potency of dopamine), JumpIn-DAT +dox pretreated 1 h with 10 µM GBR12909 (converted), fixed pseudo-Hill slope of 1): 25.1 µM
EC50 (JumpIn-DAT cells [3]; read-out: pEC50 ± SEM (apparent potency of dopamine), JumpIn-DAT +dox pretreated 1 h with 10 µM cocaine (converted), fixed pseudo-Hill slope of 1): 12.6 µM
EC50 (JumpIn-DAT cells [3]; read-out: pEC50 ± SEM (variable slope), JumpIn-DAT +dox (converted), variable slope model): 31.6 µM
EC50 (JumpIn-DAT cells [3]; read-out: pEC50 ± SEM (variable slope), JumpIn-DAT +dox + 10 µM GBR12909 (converted), variable slope model): 31.6 µM
EC50 (JumpIn-DAT cells [3]; read-out: pEC50 ± SEM (variable slope), JumpIn-DAT +dox + 10 µM cocaine (converted), variable slope model): 20 µM

Cl.Cl.Fc1ccc(C(OCCN2CCN(CCCc3ccccc3)CC2)c2ccc(F)cc2)cc1 [GBR12909, GBR12909 dihydrochloride]
effect of pretreatment itself on impedance (U2OS-DAT cells [4]): did not substantially affect impedance
effect of pretreatment on its own on impedance (JumpIn-DAT cells [1]): did not substantially affect impedance over time
pIC50, MPP+-induced toxicity inhibition (DAT [5]): 7.0
affinity for DAT (DAT [6]): low nanomolar
enhancement of the apparent potency of dopamine by DAT inhibitor [2]: twofold

CN1CCc2cc(Cl)c(O)cc2[C@@H](c2ccccc2)C1 [SCH23390, SCH23390 hydrochloride]
effect on dopamine-induced cell response (U2OS-DAT cells [7]): completely abolish
effect on dopamine-induced response [8]: eliminated the dopamine-induced response
effect on dopamine response (JumpIn-DAT cells [9]): not affected

[3H]CN1[C@H]2CC[C@@H]1[C@@H](C(=O)OC)[C@@H](c1ccc(F)cc1)C2 [[^3H]WIN35,428, [^3H]-2β-carbomethoxy-3β-(4-fluorophenyl)-tropane]
Bmax (total amount of binding sites) (DAT [10]; U2OS-DAT membranes): 1.6 ± 0.2 pmol/mg protein
specific binding (DAT [10]; U2OS-mock membranes): No specific binding

CCN1CCC[C@H]1CNC(=O)c1c(O)c(Cl)cc(Cl)c1OC [raclopride]
effect on dopamine-induced response [8]: not

COC(=O)[C@@H]1[C@H]2C[C@H]3c4[nH]c5ccccc5c4CCN3C[C@@H]2CC[C@@H]1O [yohimbine, Yohimbine hydrochloride]
effect on dopamine response (JumpIn-DAT cells [9]): significantly reduced
